Laboratory results from US6875760B2 (Novo Nordisk A/S, priority 1999, dated 2005).

Target: T1, human glucagon receptor (Homo sapiens, UniProt P47871)
T1 construct: expressed in transfected cells; host or cells: BHK (baby hamster kidney) cells
Experiment: Glucagon Binding Assay (III)
Conditions: BHK cell membranes, WGA SPA beads, 125I-glucagon; read-out: Glu Bd Assay (III) IC50
Method in brief: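 Non-specific binding was set with 500 nM glucagon in this SPA-type binding assay using WGA beads. The receptor source was a membrane preparation, kept on ice or at 4 °C, from BHK cells transfected with the human receptor. Scintillation counts were taken after 4 hours of shaking and 8–48 hours of settling.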

T1 sequence (P47871 26-477): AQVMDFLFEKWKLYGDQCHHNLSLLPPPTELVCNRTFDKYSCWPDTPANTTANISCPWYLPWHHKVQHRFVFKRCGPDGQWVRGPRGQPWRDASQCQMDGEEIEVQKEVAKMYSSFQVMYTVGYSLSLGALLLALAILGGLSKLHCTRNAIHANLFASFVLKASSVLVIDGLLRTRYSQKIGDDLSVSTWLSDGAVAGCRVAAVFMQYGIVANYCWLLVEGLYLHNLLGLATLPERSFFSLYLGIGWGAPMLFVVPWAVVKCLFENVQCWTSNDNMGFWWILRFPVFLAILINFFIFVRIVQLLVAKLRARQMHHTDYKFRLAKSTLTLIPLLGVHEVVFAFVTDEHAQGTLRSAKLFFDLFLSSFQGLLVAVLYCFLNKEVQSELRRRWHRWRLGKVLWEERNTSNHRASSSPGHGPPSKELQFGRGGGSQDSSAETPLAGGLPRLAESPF

SMILES | IC50 [nM]
O=C(O)CCNC(=O)c1ccc(CN(C(=O)Oc2ccccc2[N+](=O)[O-])c2ccc(C3CCCCC3)cc2)cc1 [Example 415, 3-(4-{[(4-Cyclohexylphenyl)-(2-nitrophenoxycarbonyl)amino]methyl}benzoylamino)propionic acid] | 2420
O=C(O)CCNC(=O)c1ccc(CN(C(=O)Oc2ccc(Cl)cc2Cl)c2ccc(C3CCCCC3)cc2)cc1 [Example 416, 3-(4-{[(4-Cyclohexylphenyl)-(2,4-dichlorophenoxycarbonyl)amino]methyl}benzoylamino)propionic acid] | 634
O=C(O)CCNC(=O)c1ccc(CN(C(=O)Oc2ccc(F)c(F)c2)c2ccc(C3CCCCC3)cc2)cc1 [Example 417, 3-(4-{[(4-Cyclohexylphenyl)-(3,4-difluorophenoxycarbonyl)amino]methyl}benzoylamino)propionic acid] | 877
CSc1ccc(OC(=O)N(Cc2ccc(C(=O)NCCC(=O)O)cc2)c2ccc(C3CCCCC3)cc2)cc1 [Example 418, 3-(4-{[(4-Cyclohexylphenyl)-(4-methylsulfanylphenoxycarbonyl)amino]methyl}benzoylamino)propionic acid] | 472
O=C(O)CCNC(=O)c1ccc(CN(C(=O)Oc2cc(C(F)(F)F)cc(C(F)(F)F)c2)c2ccc(C3CCCCC3)cc2)cc1 [Example 419, 3-(-4-{[(3,5-Bis(trifluoromethyl)phenoxycarbonyl)-(4-cyclohexylphenyl)amino]methyl}benzoylamino)propionic acid] | 482
O=C(O)CCNC(=O)c1ccc(CN(C(=O)Oc2ccc(Br)cc2Br)c2ccc(C3CCCCC3)cc2)cc1 [Example 420, 3-(4-{[(4-Cyclohexylphenyl)-(2,4-dibromompheoxycarbonyl)amino]methyl}benzoylamino)propionic acid] | 729
O=C(O)CCNC(=O)c1ccc(CN(C(=O)Oc2cccc(OC(F)(F)F)c2)c2ccc(C3CCCCC3)cc2)cc1 [Example 421, 3-(4-{[(4-Cyclohexylphenyl)-(3-trifluoromethoxyphenoxycarbonyl)amino]methyl}benzoylamino)propionic acid] | 528
O=C(O)CCNC(=O)c1ccc(CN(Cc2cc(Cl)cc(Cl)c2)NC(=O)c2ccc(OC(F)(F)F)cc2)cc1 [Example 422, 3-{4-[N-(3,5-Dichlorobenzyl)-N′-(4-trifluoromethoxybenzoyl)hydrazinomethyl]benzoylamino}propionic acid] | 536
CCC(C)(C)C1CCC(N(Cc2ccc(C(=O)NCCC(=O)O)cc2)NC(=O)c2ccc(OC(F)(F)F)cc2)CC1 (stereo not drawn) [Example 423, 3-{4-[N-[4-(1,1-Dimethylpropyl)cyclohexyl]-N′-(4-trifluoromethoxybenzoyl)hydrazinomethyl]benzoylamino}propionic acid] | 37
CC(C)(C)C1CCC(N(Cc2ccc(C(=O)NCCC(=O)O)cc2)NC(=O)c2ccc(OC(F)(F)F)cc2)CC1 (stereo not drawn) [Example 424, 3-{4-[N-(4-tert-Butylcyclohexyl)-N′-(4-trifluoromethoxybenzoyl)hydrazinomethyl]benzoylamino}propionic acid] | 61
O=C(O)CCNC(=O)c1ccc(CN(NC(=O)c2ccc(OC(F)(F)F)cc2)C2C[C@@H]3C[C@H]2C2CCCC23)cc1 (stereo partly drawn) [Example 425, 3-{4-[N-(Octahydro-4,7-methanoinden-5-yl)-N′-(4-trifluoromethoxybenzoyl)hydrazinomethyl]benzoylamino}propionic acid] | 220
O=C(O)CCNC(=O)c1ccc(CN(NC(=O)c2ccc(OC(F)(F)F)cc2)C2CCC(c3ccccc3)CC2)cc1 (stereo not drawn) [Example 426, 3-{4-[N-(4-Phenylcyclohexyl)-N′-(4-trifluoromethoxybenzoyl)hydrazinomethyl]benzoylamino}propionic acid] | 338
O=C(O)CCNC(=O)c1ccc(CN(NC(=O)c2ccc(OC(F)(F)F)cc2)C2CCC3CCCCC3C2)cc1 (stereo not drawn) [Example 427, 3-{4-[N-(Decahydronaphthalen-2-yl)-N′-(4-trifluoromethoxybenzoyl)hydrazinomethyl]benzoylamino}propionic acid] | 512
CC(C)(C)C1CCC(N(Cc2ccc(C(=O)NCCC(=O)O)cc2)NC(=O)c2cc(C(F)(F)F)cc(C(F)(F)F)c2)CC1 (stereo not drawn) [Example 428, 3-{4-[N′-(3,5-Bis(trifluoromethyl)benzoyl)-N-(4-tert-butylcyclohexyl)hydrazinomethyl]benzoylamino}propionic acid] | 410
CC(C)(C)[C@H]1CC[C@H](N(Cc2ccc(C(=O)NCCC(=O)O)cc2)NC(=O)c2ccc(OC(F)(F)F)cc2)CC1 [Example 429, 3-{4-[N-(trans-4-tert-Butylcyclohexyl)-N′-(4-trifluoromethoxybenzoyl)hydrazinomethyl]benzoylamino}propionic acid] | 86
O=C(O)CCNC(=O)c1ccc(CN(C(=O)Nc2ccc(OC(F)(F)F)cc2)c2ccc(Br)cc2)cc1 [Example 430, 3-{4-[1-(4-Bromophenyl)-3-(4-trifluoromethoxyphenyl)ureidomethyl]benzoylamino}propionic acid] | 1680
O=C(O)CCNC(=O)c1ccc(CN(Cc2ccccc2Cl)C(=O)Nc2ccc(OC(F)(F)F)cc2)cc1 [Example 431, 3-{4-[1-(2-Chlorobenzyl)-3-(4-trifluoromethoxyphenyl)ureidomethyl]benzoylamino}propionic acid] | 2910

SMILES | IC50 [nM]
O=C(O)CCNC(=O)c1ccc(CN(Cc2ccc(Cl)c(Cl)c2)C(=O)Nc2ccc(OC(F)(F)F)cc2)cc1 [Example 432, 3-{4-[1-(3,4-Dichlorobenzyl)-3-(4-trifluoromethoxyphenyl)ureidomethyl]benzoylamino}propionic acid] | 1800
CC(C)c1ccc(CN(Cc2ccc(C(=O)NCCC(=O)O)cc2)C(=O)Nc2ccc(OC(F)(F)F)cc2)cc1 [Example 433, 3-{4-[1-(4-Isopropylbenzyl)-3-(4-trifluoromethoxyphenyl)ureidomethyl]benzoylamino}propionic acid] | 1250
O=C(O)CCNC(=O)c1ccc(CN(C(=O)Nc2ccc(OC(F)(F)F)cc2)c2ccc(N3CCCCC3)cc2)cc1 [Example 434, 3-{4-[1-(4-Piperidin-1-ylphenyl)-3-(4-trifluoromethoxyphenyl)ureidomethyl]benzoylamino}propionic acid] | 126
CCCCOc1ccc(N(Cc2ccc(C(=O)NCCC(=O)O)cc2)C(=O)Nc2ccc(OC(F)(F)F)cc2)cc1 [Example 435, 3-{4-[1-(4-Butoxyphenyl)-3-(4-trifluoromethoxyphenyl)ureidomethyl]benzoylamino}propionic acid] | 374
O=C(O)CCNC(=O)c1ccc(CN(C(=O)Nc2ccc(OC(F)(F)F)cc2)c2cnc3ccccc3c2)cc1 [Example 436, 3-{4-[1-Quinolin-3-yl-3-(4-trifluoromethoxyphenyl)ureidomethyl]benzoylamino}propionic acid] | 1990
O=C(O)CCNC(=O)c1ccc(CN(C(=O)Nc2ccc(OC(F)(F)F)cc2)c2ccc(C(F)(F)F)cc2)cc1 [Example 437, 3-{4-[3-(4-Trifluoromethoxyphenyl)-1-(4-trifluoromethylphenyl)ureidomethyl]benzoylamino}propionic acid] | 207
O=C(O)CCNC(=O)c1ccc(CN(C(=O)Nc2ccc(OC(F)(F)F)cc2)c2ccc(OC(F)(F)F)cc2)cc1 [Example 438, 3-{4-[1,3-Bis(4-trifluoromethoxyphenyl)ureidomethyl]benzoylamino}propionic acid] | 288
CCCc1ccc(N(Cc2ccc(C(=O)NCCC(=O)O)cc2)C(=O)Nc2ccc(OC(F)(F)F)cc2)cc1 [Example 439, 3-{4-[1-(4-Propylphenyl)-3-(4-trifluoromethoxyphenyl)ureidomethyl]benzoylamino}propionic acid] | 184
CCCCc1ccc(N(Cc2ccc(C(=O)NCCC(=O)O)cc2)C(=O)Nc2ccc(OC(F)(F)F)cc2)c(C)c1 [Example 440, 3-{4-[1-(4-Butyl-2-methylphenyl)-3-(4-trifluoromethoxyphenyl)ureidomethyl]benzoylamino}propionic acid] | 509
CCOc1ccc(N(Cc2ccc(C(=O)NCCC(=O)O)cc2)C(=O)Nc2ccc(OC(F)(F)F)cc2)cc1 [Example 442, 3-{4-[1-(4-Ethoxyphenyl)-3-(4-trifluoromethoxyphenyl)ureidomethyl]benzoylamino}propionic acid] | 4100
O=C(O)CCNC(=O)c1ccc(CN(C(=O)Nc2cccc([N+](=O)[O-])c2)c2ccc(C3CCCCC3)cc2)cc1 [Example 443, 3-{4-[1-(4-Cyclohexylphenyl)-3-(3-nitrophenyl)ureidomethyl]benzoylamino}propionic acid] | 167
CS(=O)(=O)c1cccc(NC(=O)N(Cc2ccc(C(=O)Nc3nn[nH]n3)cc2)c2ccc(C3CCCCC3)cc2)c1 [Example 444, 4-[1-(4-Cyclohexylphenyl)-3-(3-methylsulfonylphenyl)ureidomethyl]-N-(2H-tetrazol-5-yl)benzamide] | 42
CC(C)(C)C1CCC(N(Cc2ccc(C(=O)Nc3nn[nH]n3)cc2)C(=O)Nc2cccc(S(C)(=O)=O)c2)CC1 (stereo not drawn) [Example 445, 4-[1-(4-tert-Butylcyclohexyl)-3-(3-methylsulfonylphenyl)ureidomethyl]-N-(2H-tetrazol-5-yl)benzamide] | 204
CCC(C)c1ccc(N(Cc2ccc(C(=O)Nc3nn[nH]n3)cc2)C(=O)Nc2cccc(S(C)(=O)=O)c2)cc1 (stereo not drawn) [Example 446, 4-[1-(4-sec-Butylphenyl)-3-(3-methylsulfonylphenyl)ureidomethyl]-N-(2H-tetrazol-5-yl)benzamide] | 522
CCCCc1ccc(N(Cc2ccc(C(=O)Nc3nn[nH]n3)cc2)C(=O)Nc2cccc(S(C)(=O)=O)c2)cc1 [Example 447, 4-[1-(4-Butylphenyl)-3-(3-methylsulfonylphenyl)ureidomethyl]-N-(2H-tetrazol-5-yl)benzamide] | 327
CCC(C)c1ccc(N(Cc2ccc(C(=O)Nc3nn[nH]n3)cc2)C(=O)Nc2ccc(S(C)(=O)=O)cc2)cc1 (stereo not drawn) [Example 448, 4-[1-(4-sec-Butylphenyl)-3-(4-methylsulfonylphenyl)ureidomethyl]-N-(2H-tetrazol-5-yl)benzamide] | 1480
